# Laboratory results from patent publication US12370209B2, “Methods for the use of 5′-adenosine diphosphate ribose (ADPR)” (Invirsa, Inc., priority 2016, dated 2025).
# “Also recorded” adds a separate entry of the source. Where two headings read alike, the source gives them in different places.
# Tests used:
# adenovirus serotype 3 [1] = assay: Adenovirus plaque inhibition assay in A549 cells (Example 1); format: cell-based, Adenovirus serotype 3 (Ad3)
# adenovirus serotype 3 [2] = assay: Plaque inhibition of adenovirus serotype 3 by ADPR and lithium chloride (Example 2); format: cell-based, Adenovirus serotype 3 (Ad3)
# Adenovirus 3 = assay: Plaque inhibition by dilithium ADPR, Ad3 in A549 cells (Example 5); format: cell-based, Adenovirus 3 (Ad3); details: 4, 2, 1 and 0.5 mg/mL
# Protocol: (§1) Dilithium ADPR, 150 mg powder, was stored in a glass vial (“Sample A”) at 4° C. in the dark until use. On the day of assay, Sample A was solubilized to 200 mg/ml in 750 μL water for irrigation, then further diluted to target concentrations. […] Solubilized Sample A was tested for plaque inhibitory properties against Adenovirus 3 and Adenovirus 5 (Ad3 & Ad5).
# (§2) Solubilized Sample A was diluted to 4 mg/mL, 2 mg/mL, 1 mg/mL and 0.5 mg/mL in Virus Growth Media (DMEM, 2% Fetal Bovine Serum (FBS) and antibiotic, antimycotic).
# (§3) A549 cells were plated 7×10^4 cells per well in 6-well plates. After 18 hours, growth media was removed and 1 mL of each sample mixtures was added per well. After incubating for one hour at 37° C., approximately 50-75 plaque forming units Ad3 and separately Ad5 were added per well. Virus adsorbed to the cells for two hours and then media was aspirated from the monolayers and replaced with Virus Growth Media containing Sample A dilutions of 0, 0.5, 1.0, 2.0, and 4.0 mg/mL, and agarose.
# Adenovirus 5 = assay: Plaque inhibition by dilithium ADPR, Ad5 in A549 cells (Example 5); format: cell-based, Adenovirus 5 (Ad5); details: 4, 2, 1 and 0.5 mg/mL
# Protocol: as §1, §2, §3
# A549 cells = assay: Thinning of the A549 monolayer in the plaque assay (Example 5); format: cell-based, human
# Protocol: as §3
# Ad3 and Ad5 plaque size and number were reduced by Sample A at 4 mg/mL and 2 mg/mL. […] The thin monolayer made it hard to delineate plaques. Very few plaques were visible as compared to control. […] Mean plaque counts at Sample A concentrations were as follows: • Ad3: 4 mg/mL-29; 2 mg/mL-10; 1 mg/mL-44; 0.5 mg/mL-54; 0 mg/mL-55 • Ad5: 4 mg/mL-7; 2 mg/mL-7; 1 mg/mL-25; 0.5 mg/mL-53; 0 mg/mL-65 Conclusion
# [3] = system: A549 (human alveolar adenocarcinoma) cell culture; assay: MTT incorporation in A549 cell culture (Example 8); format: cell-based; details: for Average MTT incorporation as measured by OD560: 48 hours
# Protocol: ADPR, sodium Salt, (Sigma A0752), was tested in A549 (human alveolar adenocarcinoma) cell culture to determine its effect on replication. ADPR was evaluated at five concentrations by incubation for 48 hours with A549 cells (previously grown to a monolayer) at 37° C. After incubation, MTT (3-(4,5-dimethylthiaz ol-2-yl)-2,5-diphenyltetrazolium bromide) dye was added to each well and live cells were measured by blue dye incorporation.
# A549 cell monolayers [4] = assay: Toxicity score on A549 cell monolayers (Example 1)
# A549 cell monolayers [5] = assay: Toxicity score on A549 cell monolayers (Example 2)
# [6] = system: tumor necrosis factor alpha (TNF-α) mediated cytotoxicity; details: in vitro, levels as low as; cited from earlier work
# [7] = system: Adenovirus serotype 5 (Ad5); assay: Viral keratoconjunctivitis model, modified McDonald-Shadduck scoring (Example 6); format: in vivo, Oryctolagus cuniculus (New Zealand White rabbits)
# Description: • Species: Oryctolagus cuniculus • Strain: New Zealand White rabbits • Sex: Female • Age: Commensurate with weight • Weight: Approximately 2.5 to 3.0 kilograms at study start • Number: 8 (naïve) • Method of Identification: Ear tag and cage label • Minimum Acclimation: 5 days
# • 1. Inoculum—Adenovirus serotype 5 (Ad5) • (a) Physicochemical Characteristics and Composition Description: Virus propagated in A549 cells in DMEM with 8% fetal bovine serum. Cells and supernatant harvested, sonicated, and clarified by low speed centrifugation. Infectious titer by TCID50: 5.0×109 plaque-forming-units (PFU) per mL. • (b) Storage Condition: frozen at −60 to −80° C. • 2. Test Article—Dilithium ADPR • (a) Molecular weight: approximately 571.18 • (b) Storage Condition: Refrigerated at 2-8° C. • 3. Control Vehicle • (a) Composition: 0.31% sodium chloride, 0.1% sodium tetraborate, 1% boric acid, 0.35% polyethylene glycol 300 (PEG-300) in deionized (DI) water • (b) Storage Condition: Refrigerated at 2° C.-8° C. • 4. Test/Control Article Preparation • (a) Ad5 was supplied in a single aliquot for both days of inoculation. Immediately prior to the first viral inoculation on Day −1, the virus was thawed and brought to room temperature. 0.05 mL (50 μL) of the 5.0×10^9 PFU Ad5/mL solution was diluted with 1.5 mL of Dulbecco's Modified Eagle Medium (DMEM) to create a 1.61×10^8 PFU Ad5/mL solution. After the first inoculation on Day −1, the remaining virus solution was stored refrigerated at 2-8° C. until the second inoculation on Day 0. Virus solution was not re-frozen. • (b) Vehicle: 55.8 mg sodium chloride, 18 mg of sodium tetraborate, 180 mg of boric acid, and 63 mg of PEG-300 were weighed out into a vial. 14 mL DI water was added, and vial contents were swirled, vortexed, and/or sonicated if needed until a clear solution is formed. The pH of the solution was tested using pH tester strips and adjusted to 7.0-7.2, if necessary, using sodium hydroxide (NaOH) or additional boric acid. The volume was then brought up to 18 mL with additional DI water to make a 0.31% sodium chloride, 0.1% sodium tetraborate, 1% boric acid, 0.35% PEG-300 solution. The vial contents were sterile filtered through a 0.2 or 0.22 μm filter. • (c) Dilithium ADPR—High Dose: 240 mg of dilithium ADPR was weighed out into a vial. 12 mg of sodium tetraborate, 120 mg of boric acid, and 42 mg of PEG-300 were weighed out into a separate vial. 7 mL DI water was added, and vial contents were swirled, vortexed, and/or sonicated if needed until a clear solution is formed. The solution was transferred to the vial containing dilithium ADPR. The volume was brought up to […] with DI water, and vial contents were swirled, vortexed, and/or sonicated if needed until a clear solution is formed. […]
# [8] = system: AsPC1—human pancreatic adenocarcinoma; assay: CellTiter-Glo cell viability assay, AsPC1; format: cell-based
# [9] = system: H1437—human, lung adenocarcinoma, non-small cell lung cancer; assay: CellTiter-Glo cell viability assay, H1437; format: cell-based
# [10] = system: U87-MG—human, brain glioblastoma; assay: CellTiter-Glo cell viability assay, U87-MG; format: cell-based
# [11] = system: MV411—human, myelomonocytic leukemia; assay: CellTiter-Glo cell viability assay, MV411; format: cell-based
# A549 cell monolayers [12] = system: A549 cell monolayers
# A549 cell monolayers [13] = details: human
# [14] = 0.5%, 1% and 2% topical TID, Day 3 and Day 7 compared to baseline on Day 1, p<0.01
# [15] = AsPC1, 72 hours treatment, average of two values
# [16] = H1437, 72 hours treatment, average of two values
# [17] = U87-MG, 72 hours treatment, average of two values
# [18] = MV411, 72 hours treatment, average of two values
compound,measurement,setting,value
Adenosine 5′-diphosphoribose Sodium Salt [Compound A],Plaque size as compared to control,adenovirus serotype 3 [1]; Compound A at 2000 and 6000 μg/ml,reduced
same,Plaque size as compared to control,"adenovirus serotype 3 [2]; Sample A at 0.44, 1.33 and 4.0 mM",reduced
same,Plaque size and number,Adenovirus 3,reduced
same,Plaque size and number,Adenovirus 5,reduced
same,Monolayer compared to cell control wells,A549 cells; 1 mg/mL and 0.5 mg/mL,slight thinning
same,Monolayer compared to control wells,A549 cells; 4 and 2 mg/mL,moderate thinning
same,Average MTT incorporation as measured by OD560,[3]; 1.5 mg/mL,0.62±0.08
same,Average MTT incorporation as measured by OD560,[3]; 3 mg/mL,0.61±0.09
same,Average MTT incorporation as measured by OD560,[3]; 6 mg/mL,0.72±0.04
same,Average MTT incorporation as measured by OD560,[3]; 12 mg/mL,0.69±0.01
same,Average MTT incorporation as measured by OD560,[3]; 24 mg/mL,0.55±0.02
same,Effect on MTT incorporation,[3]; at 24 mg/mL,mild reduction
same,Effect on MTT incorporation,[3]; up to 12 mg/mL (equal to 21 mM),did not reduce
same,Toxicity Scores (T value),A549 cell monolayers [4]; Compound A 2000 μg/ml,T = 0
same,Toxicity Scores (T value),A549 cell monolayers [4]; Compound A 6000 μg/ml,T = 0
same,Toxicity Scores (T value),A549 cell monolayers [5]; Sample A 0.44 mM,T = 0
same,Toxicity Scores (T value),A549 cell monolayers [5]; Sample A 1.33 mM,T = 0
same,Toxicity Scores (T value),A549 cell monolayers [5]; Sample A 4.0 mM,T = 0
Nc1ccn(C[C@@H](CO)OCP(=O)(O)O)c(=O)n1 [Cidofovir],Plaque Counts,adenovirus serotype 3 [1]; 20 μM Cidofovir,39
same,Plaque appearance,adenovirus serotype 3 [1]; 100 μM Cidofovir,pinpoint
same,Plaque size and number,"adenovirus serotype 3 [1]; cidofovir, as concentrations were increased (20, 100 μM)",decreased
same,Plaque appearance,adenovirus serotype 3 [2]; 3 μM Cidofovir,small plaques
same,Plaque appearance,adenovirus serotype 3 [2]; 33 μM Cidofovir,Pinpoint plaques
"Nc1ncnc2c1ncn2[C@@H]1O[C@H](COP(=O)(O)OP(=O)(O)OC[C@H]2OC(O)[C@H](O)[C@@H]2O)[C@@H](O)[C@H]1O (some centres unmarked) [ADPR, 5′-adenosine diphosphate ribose]",ADPR level with measurable inhibition of TNF-α mediated cytotoxicity,[6],5 mg/L
Dilithium ADPR,Composite modified McDonald-Shadduck score (total of all sub scores),[7]; [14],significantly improved; also recorded: significant improvement
same,Subscore conjunctival congestion,[7]; [14],improvement that was statistically significant
same,Subscore surface area of corneal involvement,"[7]; 0.5%, 1% and 2% topical TID, Day 3 and Day 7 compared to baseline on Day 1, p<0.05",improvement that was statistically significant
same,Reduction in the composite score,"[7]; all doses (0.5%, 1.0% and 2.0%), by Day 7",> 80%
same,IC50,[8]; [15],570 µM
same,IC50,[9]; [16],531 µM
same,IC50,[10]; [17],1560 µM
same,IC50,[11]; [18],323 µM
CCc1c2c(nc3ccc(O)cc13)-c1cc3c(c(=O)n1C2)COC(=O)[C@]3(O)CC [SN38],IC50,[8]; [15],1.5 µM
same,IC50,[9]; [16],0.2 µM
same,IC50,[10]; [17],1.2 µM
same,IC50,[11]; [18],1.17 µM
"[Cl-].[Li+] [Sample L, Lithium Chloride]",Plaque appearance,adenovirus serotype 3 [2],much larger; also recorded: very large plaques
same,IC50,[8],> 3000 µM
same,IC50,[9],> 3000 µM
same,IC50,[10],> 3000 µM
same,IC50,[11],> 6000 µM
same,Toxicity Scores (T value),A549 cell monolayers [12],T = 0
"NC(=O)c1cccnc1 [Compound N, Nicotinamide]",Plaque appearance,adenovirus serotype 3 [1]; 600 μg/ml nicotinamide alone,much larger
same,Plaque Counts,"adenovirus serotype 3 [1]; Compound N 6000 μg/ml, 0 μg/ml Compound A, Ad3, A549",Toxic
same,Toxicity Scores (T value),A549 cell monolayers [13]; 60 μg/ml,T = 0
same,Toxicity Scores (T value),A549 cell monolayers [13]; 600 μg/ml,T = 2
same,Toxicity Scores (T value),A549 cell monolayers [13]; 6000 μg/ml,T = 3
